Measurements published in patent US20140213575A1, “6H-Thieno[3,2-f][1,2,4]triazolo[4,3-a][1,4]diazepines” (BAYER INTELLECTUAL PROPERTY GMBH, priority 2011, published 2014).
Entries after “also recorded” stand apart in the source; their conditions may differ.

Assays:
[1] = In-vivo tolerability in the mouse; set-up: species or system female NMRI nude mice; conditions: for Drug-induced deaths (day): 3 animals per group
Description: The substances were formulated in NMP/PEG300 (1/9 V/V). They were administered orally, in an amount of 10 ml/kg, once or twice daily for a period of 5 to 7 days to female NMRI nude mice (6-8 weeks old; 3 animals per group). Body weight and mortality of the mice were monitored daily up to the end of the study. Toxicity was defined as follows: ≧10% substance-induced deaths or ≧20% weight loss.

MDA-MB-231 cells = experiment: Cellular proliferation assay (alamarBlue) MDA-MB-231; format: cell-based; conditions: Homo sapiens, 96 hours, read-out: Breast MDA-MB-231 IC50
Description: (§1) In accordance with the invention, the ability of the substances to inhibit the proliferation of various cell lines was determined. Cell viability was determined by means of the alamarBlue® reagent (Invitrogen). […] After incubation overnight at 37° C., the fluorescence values were determined (CI values). […] Then the fluorescence values were determined (CO values).
(§2) The substances were investigated in the cell lines in Table 1, which for example represent the stated indications: […]

MCF-7 cells = experiment: Cellular proliferation assay (alamarBlue) MCF-7; format: cell-based; conditions: Homo sapiens, MCF7, 96 hours, read-out: Breast MCF-7 IC50
Description: as §1, §2

VCaP cells = experiment: Cellular proliferation assay (alamarBlue) VCaP; format: cell-based; conditions: Homo sapiens, 168 hours, read-out: Prostate VCaP IC50
Description: as §1, §2

HeLa-MaTu cells = experiment: Cellular proliferation assay (alamarBlue) HeLa-MaTu; format: cell-based; conditions: 96 hours, read-out: Cervix HeLa-MaTu IC50
Description: as §1, §2

MOLP-8 cells = experiment: Cellular proliferation assay (alamarBlue) MOLP-8; format: cell-based; conditions: Homo sapiens, 120 hours, read-out: Multiple myeloma MOLP-8 IC50
Description: as §1, §2

MOLM-13 cells [2] = experiment: MOLM-13 acute monocytic leukaemia tumour model; conditions: 70 mg/kg oral daily; significance P<0.05
Description: NMRI nude mice were inoculated subcutaneously in the right flank on day 0 with 2×10^6 MOLM-13 cells in 0.1 ml Matrigel. […] Practical example 1 and practical example 2 were dissolved in 40% PEG400, 5% ethanol, 25% Solutol. The substances were administered orally, daily for […] (day 3 to day 14). […] Practical examples 1 and 2 were applied at a daily dose of 200 (highest dose used), 120 or 70 mg/kg.

MOLM-13 cells [3] = experiment: Cellular proliferation assay (alamarBlue) MOLM-13; format: cell-based; conditions: Homo sapiens, 96 hours, read-out: Leukaemia MOLM-13 IC50
Description: as §1, §2

plasma proteins = experiment: Plasma protein binding by equilibrium dialysis; format: in vitro ADME, mouse
Description: The binding of test substances to plasma proteins is determined by equilibrium dialysis by means of the Ht-dialysis apparatus (96-well) made of Teflon and a semipermeable membrane (regenerated cellulose, MWCO 12-14K). This separates 150 μl of each of a plasma side and a buffer side (50 mM phosphate buffer). The test substance is added in 2 concentrations (usually 3 and 0.3 μM) to the plasma side and binds to plasma proteins. The unbound fraction of the test substance passes through the membrane and is distributed on either side until equilibrium is established (after approx. 6-8 h at 37° C.). The substance concentration on the buffer side and the plasma side is determined by LC-MS analysis. For this, both sides are brought by dilution with buffer or plasma to the same matrix (10% plasma) and then precipitated with methanol. The free (unbound) fraction (fu) is calculated from the quotient of the buffer and plasma concentration. Stability tests and recovery tests are run concurrently as controls. In addition, the substance in buffer is dialysed against buffer, to check the nonspecific binding to apparatus and membrane and establishment of equilibrium. Because during incubation the osmotic pressure of the plasma proteins leads to dilution of the plasma (volume shift), this possible error is determined by weighing blank plasma samples and is included in the calculation of fu. Establishment of equilibrium and plasma stability should have a value not lower than 80% and the recovery should be at least 30%. A free fraction of <1% is regarded as high, between 1 and 10% as moderate and >10% as low plasma protein binding.

[4] = Plasma concentrations from in-vivo tests and PK parameters; conditions: mouse; for Plasma concentration: 60 mg/kg p.o.
Description: After thawing and shaking, the samples are centrifuged for 20 minutes at 4° C. and approx. 2000×g. An aliquot of the supernatant (approx. 25 μL) is measured by LCMS analysis. If high plasma or tissue levels are expected (>ULOQ, as a rule 5 μM) the precipitated samples are additionally diluted 1:100 with ACN/H2O (80/20, v/v)+internal standard and corresponding aliquots are measured by LCMS. For this, the test substance is added in 5-9 concentrations, corresponding to the determination range of the analytical method, to a control matrix (calibration samples), e.g. 0, 1, 10, 100, 1000, 5000 nM. For this, a portion of solid is weighed and is dissolved in DMSO (as a rule 1 mM stock solution). This stock solution is further diluted 1:10 with DMSO ([…]). Then 1:5 (v/v) ACN+internal standard (soln. A) is added to the calibration samples and processed further as with the plasma samples. The calibration series in solvent takes place similarly to the plasma calibration described. The test substance is in this case prepared in ACN/H2O (50/50, v/v) and then 1:5 (v/v) ACN+internal standard is added to the samples. This series serves for calibration of the diluted samples. The following PK parameters are calculated from these concentration-time profiles obtained: […]
AUC(0-tlast),norm multiplied by the free fraction (fu) of the species investigated.

B16F10 melanoma = B16F10 melanoma tumour model; conditions: for weight loss: oral, day 2 to day 11
Description: (§3) C57BL/6 mice were inoculated on day 0 with 0.5×10^6 cells in 0.1 ml medium, subcutaneously, in the right flank. […] The substances were administered orally for 10 days (day 2 to day 11). […] Practical example 2 was applied at a dose of 160 or 120 mg/kg.

[5] = B16F10 melanoma tumour model; conditions: C57BL/6, mouse, in vivo, po
Description: as §3

LNCaP cells = experiment: Cellular proliferation assay (alamarBlue) LNCaP; format: cell-based; conditions: Homo sapiens, 168 hours, read-out: Prostate LNCaP IC50
Description: as §1, §2

B16F10 cells = experiment: Cellular proliferation assay (alamarBlue) B16F10; format: cell-based; conditions: Mus musculus, B16-F10, 96 hours, read-out: Melanoma B16F10 IC50
Description: as §1, §2

[6] = oral 50 mg/kg, QD × 5, twice daily
[7] = oral 100 mg/kg, QD × 5, twice daily
[8] = oral 100 mg/kg, QD × 7, once daily

With `Cc1sc2c(c1C)C(c1ccc(Cl)cc1)=N[C@@H](CC(=O)OC(C)(C)C)c1nnc(C)n1-2` [Example V1, tert-Butyl[(S)-4-(4-chlorophenyl)-2,3,9-trimethyl-6H-thieno[3,2-f][1,2,4]triazolo[4,3-a][1,4]diazepin-6-yl]acetate, reference compound] the “maximum body weight loss” value ([1]; 50 mg/kg twice daily, on day 6) was 7%, the highest weight loss ([1]; daily dose of 100 mg/kg for 7 days, on the 9th day) was 10% and the MTD ([1]; female, NMRI nude, mouse, in vivo, oral, once daily, read-out: maximum tolerated treatment dose (MTD), single daily treatment) was 100 mg/kg. The “% maximum body weight change (day)” value [1, 6] was −7 (6) %, the “Remarks (tolerability)” value [1, 6] was “MTD” and the “Drug-induced deaths (day)” value [1, 6] was 0/3. For the same compound, the “% maximum body weight change (day)” value [1, 7] was −19 (5) %, the “Remarks (tolerability)” value ([1]; oral 100 mg/kg, QD × 5, twice daily, 100 mg/kg) was “Not tolerated” and the “Drug-induced deaths (day)” value [1, 7] was 2. The “% maximum body weight change (day)” value [1, 8] was −10 (9) %, the “Remarks (tolerability)” value ([1]; oral 100 mg/kg, QD × 7, once daily, 100 mg/kg) was “tolerated; also recorded: MTD (10% body-” and the “Drug-induced deaths (day)” value [1, 8] was 0/3. The IC50 (MDA-MB-231 cells) was 86 nM, the IC50 (MCF-7 cells) was 148 nM and the IC50 (VCaP cells) was 37 nM. For the same compound, the IC50 (HeLa-MaTu cells) was 107 nM, the IC50 (MOLP-8 cells) was 63 nM and the “activity on tumour growth” value (MOLM-13 cells [2]) was “biologically active”. For the same compound, the IC50 (MOLM-13 cells [3]) was 59 nM, the fu (plasma proteins; free fraction of the species investigated (mouse), as used in Table 6) was 1.5% and the fraction unbound (plasma proteins; mouse, plasma, free (unbound) fraction, equilibrium dialysis, read-out: Protein binding, given as % fu) was 0.015. The Plasma concentration ([4]; 1 h) was 2245.8 ng/mL, the Plasma concentration ([4]; 3 h) was 1220.2 ng/mL and the Plasma concentration ([4]; 5 h) was 587.2 ng/mL. For the same compound, the Plasma concentration ([4]; 7 h) was 321.5 ng/mL, the “AUC(0-tlast),norm,u” value ([4]; single oral dose 60 mg/kg, AUCnorm multiplied by fu) was 0.002 kg·h/L and the “AUC(0-tlast),norm” value ([4]; single oral dose 60 mg/kg, dose-normalized) was 0.12 kg·h/L. It also gave a tlast ([4]; single oral dose 60 mg/kg, last time point with measurable plasma concentration) of 7.0 h, a weight loss (B16F10 melanoma; 120 mg/kg dose) of 2% and a weight loss (B16F10 melanoma; 160 mg/kg dose) of 6%. The deaths (B16F10 melanoma; on day 12, in both dose groups) was “One mouse (out of 12) died”, the MTD at 10 days [5] was 55 mg/kg and the IC50 (LNCaP cells) was 63 nM. The IC50 (B16F10 cells) was 67 nM.
